# Tested on: PANC-1 complex spheroid growth, percent test/control
# Assay: Anticancer human tumor PANC-1 cell line growth inhibition [Asc];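 note: spheroids exposed to agents for 7 days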;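 for viability, T/C: percent viability relative to DMSO vehicle wells taken as 100%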
# Conditions: for IC50: curve of first compound; for viability, T/C: stronger effect = lower value
# How it was run: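 Concentration series start at each agent's clinical Cmax, or at 10 microM when none is established, and drop in half-log steps; agents are applied alone or together to complex spheroids built with HUVEC and hMSC.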
# [1] = second compound 0.0316 µM, first compound 0.0316 µM
# [2] = second compound 0.0316 µM, first compound 0.1 µM
# [3] = second compound 0.0316 µM, first compound 0.316 µM
# [4] = second compound 0.0316 µM, first compound 1 µM
# [5] = second compound 0.0316 µM, first compound 3.16 µM
# [6] = second compound 0.0316 µM, first compound 10 µM
# [7] = second compound 0.1 µM, first compound 0.0316 µM
# [8] = second compound 0.1 µM, first compound 0.1 µM
# [9] = second compound 0.1 µM, first compound 0.316 µM
# [10] = second compound 0.1 µM, first compound 1 µM
# [11] = second compound 0.1 µM, first compound 3.16 µM
# [12] = second compound 0.1 µM, first compound 10 µM
# [13] = second compound 0.316 µM, first compound 0.0316 µM
# [14] = second compound 0.316 µM, first compound 0.1 µM
# [15] = second compound 0.316 µM, first compound 0.316 µM
# [16] = second compound 0.316 µM, first compound 1 µM
# [17] = second compound 0.316 µM, first compound 3.16 µM
# [18] = second compound 0.316 µM, first compound 10 µM
# [19] = second compound 1 µM, first compound 0.0316 µM
# [20] = second compound 1 µM, first compound 0.1 µM
# [21] = second compound 1 µM, first compound 0.316 µM
# [22] = second compound 1 µM, first compound 1 µM
# [23] = second compound 1 µM, first compound 3.16 µM
# [24] = second compound 1 µM, first compound 10 µM
# [25] = second compound 3.16 µM, first compound 0.0316 µM
# [26] = second compound 3.16 µM, first compound 0.1 µM
# [27] = second compound 3.16 µM, first compound 0.316 µM
# [28] = second compound 3.16 µM, first compound 1 µM
# [29] = second compound 3.16 µM, first compound 3.16 µM
# [30] = second compound 3.16 µM, first compound 10 µM
# [31] = second compound 10 µM, first compound 0.0316 µM
# [32] = second compound 10 µM, first compound 0.1 µM
# [33] = second compound 10 µM, first compound 0.316 µM
# [34] = second compound 10 µM, first compound 1 µM
# [35] = second compound 10 µM, first compound 3.16 µM
# [36] = second compound 10 µM, first compound 10 µM
smiles,measurement,setting,value
C#Cc1c(F)ccc2cc(O)cc(-c3ncc4c(N5CC6CCC(C5)N6)nc(OCC56CCCN5CC(F)C6)nc4c3F)c12 (stereo unspecified) + Cc1c(S(C)(=O)=O)c(-c2cc(F)cc(N3CCN(c4ccc(NS(=O)(=O)c5ccc(NC(CCN6CCC(C(=O)OCCCP(=O)(O)O)CC6)CSc6ccccc6)c(S(=O)(=O)C(F)(F)F)c5)cc4)CC3)c2)c(-c2ccc(Cl)cc2)n1C(C)C,IC50,second compound 0.0316 µM,> 10 µM
same,IC50,second compound 0.1 µM,> 10 µM
same,IC50,second compound 0.316 µM,> 10 µM
same,IC50,second compound 1 µM,> 10 µM
same,IC50,second compound 3.16 µM,> 10 µM
same,IC50,second compound 10 µM,> 10 µM
same,"viability, T/C",[1],86.6%
same,"viability, T/C",[2],84%
same,"viability, T/C",[3],81.4%
same,"viability, T/C",[4],87.2%
same,"viability, T/C",[5],83.5%
same,"viability, T/C",[6],72.6%
same,"viability, T/C",[7],84.6%
same,"viability, T/C",[8],80.2%
same,"viability, T/C",[9],74.8%
same,"viability, T/C",[10],80.9%
same,"viability, T/C",[11],78%
same,"viability, T/C",[12],75.3%
same,"viability, T/C",[13],88.7%
same,"viability, T/C",[14],77.5%
same,"viability, T/C",[15],76.2%
same,"viability, T/C",[16],74%
same,"viability, T/C",[17],88.2%
same,"viability, T/C",[18],69.8%
same,"viability, T/C",[19],80.2%
same,"viability, T/C",[20],75.6%
same,"viability, T/C",[21],72.6%
same,"viability, T/C",[22],67.4%
same,"viability, T/C",[23],73.7%
same,"viability, T/C",[24],55.3%
same,"viability, T/C",[25],72.4%
same,"viability, T/C",[26],62.9%
same,"viability, T/C",[27],59.9%
same,"viability, T/C",[28],60.1%
same,"viability, T/C",[29],59%
same,"viability, T/C",[30],56.8%
same,"viability, T/C",[31],114%
same,"viability, T/C",[32],103%
same,"viability, T/C",[33],101%
same,"viability, T/C",[34],85.5%
same,"viability, T/C",[35],84.9%
same,"viability, T/C",[36],67.9%
C=C(F)C(=O)N1CCN(c2nc(OCC3CCCN3C)nc3c2CCN(c2cccc4cccc(Cl)c24)C3)CC1CC#N (stereo unspecified) + Cc1c(S(C)(=O)=O)c(-c2cc(F)cc(N3CCN(c4ccc(NS(=O)(=O)c5ccc(NC(CCN6CCC(C(=O)OCCCP(=O)(O)O)CC6)CSc6ccccc6)c(S(=O)(=O)C(F)(F)F)c5)cc4)CC3)c2)c(-c2ccc(Cl)cc2)n1C(C)C,IC50,second compound 0.0316 µM,5.83 µM
same,IC50,second compound 0.1 µM,5.83 µM
same,IC50,second compound 0.316 µM,5.43 µM
same,IC50,second compound 1 µM,5.24 µM
same,IC50,second compound 3.16 µM,5 µM
same,IC50,second compound 10 µM,5.88 µM
same,"viability, T/C",[1],94.6%
same,"viability, T/C",[2],95.8%
same,"viability, T/C",[3],106%
same,"viability, T/C",[4],100%
same,"viability, T/C",[5],92.4%
same,"viability, T/C",[6],12.5%
same,"viability, T/C",[7],97.4%
same,"viability, T/C",[8],87.6%
same,"viability, T/C",[9],113%
same,"viability, T/C",[10],103%
same,"viability, T/C",[11],98%
same,"viability, T/C",[12],7.53%
same,"viability, T/C",[13],101%
same,"viability, T/C",[14],101%
same,"viability, T/C",[15],109%
same,"viability, T/C",[16],103%
same,"viability, T/C",[17],91.3%
same,"viability, T/C",[18],3.26%
same,"viability, T/C",[19],97.8%
same,"viability, T/C",[20],98.2%
same,"viability, T/C",[21],117%
same,"viability, T/C",[22],107%
same,"viability, T/C",[23],88.1%
same,"viability, T/C",[24],1.2%
same,"viability, T/C",[25],104%
same,"viability, T/C",[26],113%
same,"viability, T/C",[27],114%
same,"viability, T/C",[28],114%
same,"viability, T/C",[29],80%
same,"viability, T/C",[30],4.62%
same,"viability, T/C",[31],181%
same,"viability, T/C",[32],180%
same,"viability, T/C",[33],189%
same,"viability, T/C",[34],194%
same,"viability, T/C",[35],108%
same,"viability, T/C",[36],0.69%
CNC(C)C(=O)NC1CN(S(=O)(=O)c2cccc(S(=O)(=O)N3CCC4CCC(C(=O)NC(c5ccccc5)c5ccccc5)N4C(=O)C(NC(=O)C(C)NC)C3)c2)CCC2CCC(C(=O)NC(c3ccccc3)c3ccccc3)N2C1=O (stereo unspecified) + Cc1c(S(C)(=O)=O)c(-c2cc(F)cc(N3CCN(c4ccc(NS(=O)(=O)c5ccc(NC(CCN6CCC(C(=O)OCCCP(=O)(O)O)CC6)CSc6ccccc6)c(S(=O)(=O)C(F)(F)F)c5)cc4)CC3)c2)c(-c2ccc(Cl)cc2)n1C(C)C,IC50,second compound 0.0316 µM,> 1 µM
same,IC50,second compound 0.1 µM,> 1 µM
same,IC50,second compound 0.316 µM,> 1 µM
same,IC50,second compound 1 µM,> 1 µM
same,IC50,second compound 3.16 µM,> 1 µM
same,IC50,second compound 10 µM,> 1 µM
same,"viability, T/C","second compound 0.0316 µM, first compound 0.00316 µM",100%
same,"viability, T/C","second compound 0.0316 µM, first compound 0.01 µM",92.3%
same,"viability, T/C",[1],97.5%
same,"viability, T/C",[2],94.9%
same,"viability, T/C",[3],98.6%
same,"viability, T/C",[4],91.8%
same,"viability, T/C","second compound 0.1 µM, first compound 0.00316 µM",96.6%
same,"viability, T/C","second compound 0.1 µM, first compound 0.01 µM",98.4%
same,"viability, T/C",[7],105%
same,"viability, T/C",[8],93.8%
same,"viability, T/C",[9],98.6%
same,"viability, T/C",[10],96.9%
same,"viability, T/C","second compound 0.316 µM, first compound 0.00316 µM",98.3%
same,"viability, T/C","second compound 0.316 µM, first compound 0.01 µM",113%
same,"viability, T/C",[13],97.4%
same,"viability, T/C",[14],101%
same,"viability, T/C",[15],103%
same,"viability, T/C",[16],91.9%
same,"viability, T/C","second compound 1 µM, first compound 0.00316 µM",101%
same,"viability, T/C","second compound 1 µM, first compound 0.01 µM",113%
same,"viability, T/C",[19],105%
same,"viability, T/C",[20],102%
same,"viability, T/C",[21],109%
same,"viability, T/C",[22],88.9%
same,"viability, T/C","second compound 3.16 µM, first compound 0.00316 µM",104%
same,"viability, T/C","second compound 3.16 µM, first compound 0.01 µM",104%
same,"viability, T/C",[25],103%
same,"viability, T/C",[26],94.9%
same,"viability, T/C",[27],98.5%
same,"viability, T/C",[28],90.7%
same,"viability, T/C","second compound 10 µM, first compound 0.00316 µM",173%
same,"viability, T/C","second compound 10 µM, first compound 0.01 µM",183%
same,"viability, T/C",[31],173%
same,"viability, T/C",[32],160%
same,"viability, T/C",[33],185%
same,"viability, T/C",[34],158%
